The results in this text go back to PubChem BioAssay AID330 (DTP/NCI, 2004).

The test system of this assay is P388 leukemia ip, CD2F1 mice, survival T/C. In words: NCI In Vivo Anticancer Drug Screen. Data for tumor model P388 Leukemia (intraperitoneal) in CD2F1 (CDF1) mice. Conditions: endpoint: median survival time, higher = longer survival. A digest of the protocol: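 Mice carrying the transplanted tumor received test compound or vehicle. Survival was recorded in each group, and the value is the treated-group measurement divided by that of the vehicle-treated control group.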

Where [1] appears, read: dose: 100.0 mg/kg/injection, schedule: Q04DX002 (ip), vehicle: saline with Tween-80.
The mark [2] stands for this setting: dose: 200.0 mg/kg/injection, schedule: Q04DX002 (ip), vehicle: saline with Tween-80.
Where [3] appears, read: dose: 60.0 mg/kg/injection, schedule: Q01DX005 (ip), vehicle: saline with Tween-80.
Setting [4] is: dose: 120.0 mg/kg/injection, schedule: Q01DX005 (ip), vehicle: saline with Tween-80.
[5] abbreviates: dose: 50.0 mg/kg/injection, schedule: Q01DX009 (ip), vehicle: Klucel (hydroxypropylcellulose) (HPC).
Setting [6] is: dose: 100.0 mg/kg/injection, schedule: Q01DX009 (ip), vehicle: Klucel (hydroxypropylcellulose) (HPC).
The mark [7] stands for this setting: dose: 50.0 mg/kg/injection, schedule: Q01DX009 (ip), vehicle: saline with Tween-80.
Where [8] appears, read: dose: 100.0 mg/kg/injection, schedule: Q01DX009 (ip), vehicle: saline with Tween-80.
Setting [9] is: dose: 12.5 mg/kg/injection, schedule: Q01DX009 (ip), vehicle: Klucel (hydroxypropylcellulose) (HPC).
The mark [10] stands for this setting: dose: 25.0 mg/kg/injection, schedule: Q01DX009 (ip), vehicle: Klucel (hydroxypropylcellulose) (HPC).
Where [11] appears, read: dose: 25.0 mg/kg/injection, schedule: Q01DX009 (ip), vehicle: saline with Tween-80.
Where [12] appears, read: dose: 50.0 mg/kg/injection, schedule: Q04DX002 (ip), vehicle: saline with Tween-80.
Setting [13] is: dose: 200.0 mg/kg/injection, schedule: Q01DX009 (ip), vehicle: saline with Tween-80.
Where [14] appears, read: dose: 50.0 mg/kg/injection, schedule: Q01DX005 (ip), vehicle: saline with Tween-80.
Where [15] appears, read: dose: 100.0 mg/kg/injection, schedule: Q01DX005 (ip), vehicle: saline with Tween-80.
Setting [16] is: dose: 200.0 mg/kg/injection, schedule: Q01DX005 (ip), vehicle: saline with Tween-80.

Several values for one entry are separate records, joined by “and”; a condition that tells them apart may be missing. Equal values may be shown once. Toxic doses and inconclusive results are not listed.

`CCn1cc(C(=O)O)c(=O)c2ccc(C)nc21` (tested in a mixture with another compound): the T/C under setting [1] is 99 % of control and the T/C under setting [2] was 91 % of control.
For `O=C(c1ccccc1)C1Nc2ccc(Cl)cc2C2C=CCC12` (stereo not given), the T/C runs as follows: under setting [3], 102 % of control; under setting [4], 94 % of control; (dose: 240.0 mg/kg/injection, schedule: Q01DX005 (ip), vehicle: saline with Tween-80) 93 % of control.
`COC(=O)c1ccccc1NC(CCN1CCN(c2ccccc2)CC1)=NC(C)(C)C`: the T/C is 100 % of control under setting [5] and 102 % of control under setting [6].
Regarding `Nc1nnc2nc(C(C(=O)c3ccccc3)c3nc4nnc(N)n4[nH]c3=O)c(=O)[nH]n12`, the T/C is 102 % of control (dose: 50.0 mg/kg/injection, schedule: Q01DX005 (ip), vehicle: saline); 96 % of control (dose: 100.0 mg/kg/injection, schedule: Q01DX005 (ip), vehicle: saline); 97 % of control (dose: 200.0 mg/kg/injection, schedule: Q01DX005 (ip), vehicle: saline).
As for `CC1[C@@H]2CC=C3[C@H]4CCC5Cc6nc7c(nc6C[C@@]5(C)C4CC(=O)[C@]32CO[C@]12OC(C)(C)CC2O)CC1CC[C@@H]2C3=C[C@H]4O[C@@]5(O[C@@](C)(CO)C[C@@H]5O)C(C)[C@@]4(O)[C@]3(C)[C@@H](O)CC2[C@]1(C)C7` (stereo not given in full), the T/C was 86 % of control (dose: 0.08 mg/kg/injection, schedule: Q01DX009 (ip), vehicle: saline + alcohol); 115 % of control and 117 % of control (dose: 10.0 micrograms/kg/injection, schedule: Q01DX005 (ip), vehicle: saline + alcohol); 114 % of control and 115 % of control (dose: 20.0 micrograms/kg/injection, schedule: Q01DX005 (ip), vehicle: saline + alcohol); 123 % of control (dose: 80.0 micrograms/kg/injection, schedule: Q01DX005 (ip), vehicle: saline + alcohol).
In the case of `CCCS(=O)[O-].CCCS(=O)[O-].[Zn+2]`, the T/C by setting is: (dose: 0.05 mg/kg/injection, schedule: Q01DX009 (ip), vehicle: saline) 103 % of control; (dose: 0.1 mg/kg/injection, schedule: Q01DX009 (ip), vehicle: saline) 107 % of control; (dose: 0.2 mg/kg/injection, schedule: Q01DX009 (ip), vehicle: saline) 108 % of control; (dose: 0.4 mg/kg/injection, schedule: Q01DX009 (ip), vehicle: saline) 99 % of control; (dose: 0.8 mg/kg/injection, schedule: Q01DX009 (ip), vehicle: saline) 107 % of control; (dose: 1.6 mg/kg/injection, schedule: Q01DX009 (ip), vehicle: saline) 108 % of control. Also, the T/C runs as follows: (dose: 3.2 mg/kg/injection, schedule: Q01DX009 (ip), vehicle: saline) 101 % of control; (dose: 6.4 mg/kg/injection, schedule: Q01DX009 (ip), vehicle: saline) 100 % of control; (dose: 12.8 mg/kg/injection, schedule: Q01DX009 (ip), vehicle: saline) 100 % of control.
With `COc1ccc(CN2C(=O)C(Cl)=C(Cl)C2=O)c(OC)c1`, the T/C under setting [3] was 100 % of control and the T/C under setting [4] was 94 % of control.
With `NNS(=O)(=O)c1ccccc1`, the T/C by setting is: under setting [7], 103 % of control; under setting [8], 103 % of control.
As to `CNC(=O)n1nc(C)cc1C`, the T/C by setting is: (dose: 50.0 mg/kg/injection, schedule: Q01DX005 (ip), vehicle: distilled water + alcohol) 108 % of control; (dose: 100.0 mg/kg/injection, schedule: Q01DX005 (ip), vehicle: distilled water + alcohol) 102 % of control; (dose: 200.0 mg/kg/injection, schedule: Q01DX005 (ip), vehicle: distilled water + alcohol) 108 % of control.
On to `Cc1ccc(S(=O)(=O)N/N=C\C(O)C(O)C(O)CO)cc1` (stereo not given), for which the T/C reads like this: under setting [5], 114 % of control; under setting [6], 106 % of control; (dose: 200.0 mg/kg/injection, schedule: Q01DX009 (ip), vehicle: Klucel (hydroxypropylcellulose) (HPC)) 107 % of control; (dose: 400.0 mg/kg/injection, schedule: Q01DX009 (ip), vehicle: Klucel (hydroxypropylcellulose) (HPC)) 104 % of control.
For `COc1nc2c(c(O)cn2C2OCC(OC(C)=O)C(OC(C)=O)C2OC(C)=O)c(=O)n1C` (stereo not given), the T/C (dose: 100.0 mg/kg/injection, schedule: Q01DX001 (ip), vehicle: saline with Tween-80) is 106 % of control; the T/C (dose: 200.0 mg/kg/injection, schedule: Q01DX001 (ip), vehicle: saline with Tween-80) was 92 % of control; the T/C (dose: 400.0 mg/kg/injection, schedule: Q01DX001 (ip), vehicle: saline with Tween-80) is 99 % of control.
`ClC1C(Cl)C(Cl)C(Cl)C(Cl)C1Cl` (stereo not given): the T/C was 104 % of control and 113 % of control under setting [9]; 104 % of control and 97 % of control under setting [10]; 100 % of control and 104 % of control under setting [11]; 105 % of control and 98 % of control under setting [5]; 100 % of control and 108 % of control under setting [7]; 100 % of control under setting [12]. For the same compound, the T/C was 89 % of control and 95 % of control under setting [6]; 100 % of control and 108 % of control under setting [8]; 100 % of control under setting [1]; 99 % of control and 87 % of control (dose: 150.0 mg/kg/injection, schedule: Q01DX009 (ip), vehicle: Klucel (hydroxypropylcellulose) (HPC)); 100 % of control and 110 % of control under setting [13]; 90 % of control under setting [2]. The T/C (dose: 400.0 mg/kg/injection, schedule: Q01DX009 (ip), vehicle: saline with Tween-80) is 101 % of control and 114 % of control.
Regarding `O=C1C=CC(=Nc2ccc(N(CCCl)CCCl)cc2)c2ccccc21`, the T/C under setting [5] was 171 % of control; the T/C under setting [6] is 156 % of control and 181 % of control.
In the case of `CC(=O)C[n+]1ccc(C)cc1Sc1ccccc1C`, the T/C was 101 % of control and 103 % of control (dose: 25.0 mg/kg/injection, schedule: Q01DX005 (ip), vehicle: saline with Tween-80); 111 % of control and 113 % of control and 122 % of control under setting [14]; 118 % of control and 120 % of control under setting [15].
In the case of `CN(C)Cc1cocc(CN(C)C)c1=O`, the T/C (dose: 50.0 mg/kg/injection, schedule: Q01DX009 (ip), vehicle: saline) was 100 % of control; the T/C (dose: 100.0 mg/kg/injection, schedule: Q01DX009 (ip), vehicle: saline) is 98 % of control; the T/C (dose: 200.0 mg/kg/injection, schedule: Q01DX009 (ip), vehicle: saline) was 103 % of control.
In the case of `NC(=S)c1ccc(C2Nc3ccccc3N2)cc1`, the T/C was 95 % of control (dose: 25.0 mg/kg/injection, schedule: Q04DX002 (ip), vehicle: saline with Tween-80); 92 % of control under setting [12]; 87 % of control and 91 % of control under setting [1].
`COc1ccccc1NC(=O)C1=C(C)NC(C)=C(C(=O)Nc2ccccc2OC)C1c1ccc(Cl)cc1Cl`: the T/C was 103 % of control under setting [14], 103 % of control under setting [15] and 91 % of control under setting [16].
`CSc1nc(C(N)=O)cc(=O)[nH]1`: the T/C is, setting by setting: (dose: 3.12 mg/kg/injection, schedule: Q01DX009 (ip), vehicle: Klucel (hydroxypropylcellulose) (HPC)) 104 % of control; (dose: 6.25 mg/kg/injection, schedule: Q01DX009 (ip), vehicle: Klucel (hydroxypropylcellulose) (HPC)) 104 % of control; under setting [9], 104 % of control and 106 % of control; under setting [10], 105 % of control; under setting [5], 92 % of control.
Regarding `O=c1[nH]c(=O)n2ncnc2[nH]1`, the T/C reads like this: under setting [11], 91 % of control; under setting [14], 95 % of control; under setting [7], 95 % of control; under setting [15], 95 % of control; under setting [8], 99 % of control; under setting [16], 105 % of control. In addition, the T/C under setting [13] was 91 % of control.
As to `CN1CCN(C(=O)/C(=C/c2ccccc2)NC(=O)c2ccccc2)CC1`, the T/C is, setting by setting: under setting [14], 96 % of control; under setting [15], 95 % of control; under setting [16], 87 % of control.
As for `C[C@@H]1C[C@H](C)OC(CO)O1` (stereo not given in full) (tested in a mixture with another compound), the T/C runs as follows: (dose: 60.0 mg/kg/injection, schedule: Q01DX005 (ip), vehicle: saline) 100 % of control; (dose: 120.0 mg/kg/injection, schedule: Q01DX005 (ip), vehicle: saline) 99 % of control; (dose: 240.0 mg/kg/injection, schedule: Q01DX005 (ip), vehicle: saline) 97 % of control.
For `O=S(=O)(SC(S(=O)(=O)C12CC3CC(CC(C3)C1)C2)S(=O)(=O)C12CC3CC(CC(C3)C1)C2)C12CC3CC(CC(C3)C1)C2` (stereo not given), the T/C under setting [7] was 95 % of control, the T/C under setting [8] is 105 % of control and the T/C under setting [13] was 95 % of control.
